| Structure (SMILES) | melting point |
| --- | --- |
| Cc1noc(C)c1S(=O)(=O)N1CCC(C(=O)O)CC1 | 210 to 215 °C |
| COc1ccc(C)cc1-c1nnc(S)n1N | 247 to 249 °C |
| O=C(O)CN1CCCNC1=O | 248 to 250 °C |
| Nc1cccc(C(=O)N2CCCCC2)c1 | 121 to 123 °C |
| Sc1nc2cc(Br)cnc2[nH]1 | 324 to 326 °C |
| Nc1cc(F)c(N2CCCC2)c(F)c1 | 94 to 96 °C |
| Cc1cc(C=O)c(C)n1-c1nccs1 | 43 to 45 °C |
| COc1cc(C(=O)O)cc(OC)c1OCC(N)=O | 249 to 253 °C |
| NC(=S)CCN1CCCCC1 | 104 to 106 °C |
| Cc1nn(C)c2sc(C(=O)NC(C)C(=O)O)cc12 (stereo not given) | 269 to 271 °C |
| Cc1nnc2cc(Cl)ncn12 | 122 to 124 °C |
| O=c1[nH]c(-c2cccc(C(F)(F)F)c2)cs1 | 182 to 184 °C |
| COC(=O)c1cc(C(=O)OC)[nH]n1 | 149 to 151 °C |
| CNc1ccc([N+](=O)[O-])c2nonc12 | 257 to 259 °C |
| Cc1nc(-c2ccc(Cl)cc2)cs1 | 119 to 121 °C |
| CC1(C)C(=O)NS1(=O)=O | 137 to 139 °C |
| CCn1nccc1C=CC(=O)O | 151 to 153 °C |
| Nc1ncc(Br)cc1S(=O)(=O)Cl | 129 to 131 °C |
| O=C(O)C1CCN(c2ccc(Cl)nn2)CC1 | 186 to 188 °C |
| COC(=O)c1nc[nH]n1 | 180 to 182 °C |
| COC(=O)C(C)Cn1cc(Br)cn1 (stereo not given) | 43 to 45 °C |
| Cc1ccc(S(=O)(=O)N2CCCCC2C)cc1C(=O)O (stereo not given) | 149 to 151 °C |
| NNC(=S)NC1CC1 | 100 to 102 °C |

| Structure (SMILES) | melting point |
| --- | --- |
| Nc1c(C(=O)O)cc(F)cc1[N+](=O)[O-] | 219 to 221 °C |
| CC(C)NC(=O)CNS(=O)(=O)CCC(=O)O | 125 to 127 °C |
| CN1CCN(C(=O)CC#N)CC1 | 118 to 120 °C |
| NC(c1nnn[nH]1)C1CC1 (stereo not given) | 233 to 235 °C |
| Oc1ccc(OC2CCCCC2)cc1 | 63 to 65 °C |
| CC(C)(C)OC(=O)N1CCCC(C(=O)NC2CCCNC2)C1 (stereo not given) | 116 to 118 °C |
| O=C(O)c1nnn(C2CC2)c1C(F)(F)F | 90 to 92 °C |
| Cc1csc2ccc(C#N)cc12 | 97 to 99 °C |
| OCc1cnn(Cc2ccc(Br)cc2)c1 | 72 to 74 °C |
| O=C1OCCN1c1ccc([N+](=O)[O-])cc1 | 154 to 156 °C |
| N#Cc1ccc(-c2nc(CCl)co2)cc1 | 132 to 134 °C |
| CCNC(=O)Cn1ccc(N)n1 | 124 to 126 °C |
| Cc1ccc(-n2nc(C)cc2N)nn1 | 119 to 121 °C |
| Cc1cc(C)c2oc(N)nc2c1 | 197 to 199 °C |
| Cc1ccc(N)c(C)c1O | 102 to 104 °C |
| Nc1nc(Cl)nnc1Cl | 198 to 200 °C |
| CC(=O)NC1(c2noc(CCl)n2)CCCC1 | 74 to 76 °C |
| C=CCn1c(N)c(C(N)=S)sc1=S | 195 to 197 °C |
| CC(C)(C)C1(C)OC(=O)CC(=O)O1 | 72 to 74 °C |
| O=C(O)c1nc[nH]n1 | 132 to 136 °C |
| Cc1cn2c(C=O)c(C)nc2s1 | 153 to 155 °C |
| O=Cc1ccc(Br)cc1[N+](=O)[O-] | 95 to 100 °C |
| O=[N+]([O-])c1ccc(O)c(Br)c1 | 111 to 113 °C |

| Structure (SMILES) | melting point |
| --- | --- |
| N#Cc1cccc(N2C(=O)CCC2=O)c1 | 134 to 136 °C |
| Cc1noc(C)c1S(=O)(=O)NC(C)C(=O)O (stereo not given) | 135 to 137 °C |
| O=C(O)c1ccc(NS(=O)(=O)c2ccc(Cl)c(Cl)c2)cc1 | 254 to 256 °C |
| Sc1nnc(C2CCCCC2)o1 | 81 to 83 °C |
| CCCCCCn1cc(S(=O)(=O)Cl)c(=O)[nH]c1=O | 157 to 159 °C |
| NC1(c2ccc(Br)cc2)CCOCC1 | 85 to 87 °C |
| CC(C)(C)c1cc(N)n(CCO)n1 | 102 to 104 °C |
| O=C(NCCCN1CCCC1=O)OCC(F)(F)F | 35 to 37 °C |
| CCN1CCN(c2ccccc2N)CC1 | 39 to 43 °C |
| Clc1nc(Br)n[nH]1 | 178 to 180 °C |
| Nc1c(C(=O)O)ccnc1Br | 224 to 226 °C |
| O=C(O)CSc1nc(-c2cccnc2)no1 | 154 to 156 °C |
| ON=Cc1ccc(OCc2ccncc2)cc1 | 163 to 165 °C |
| N#Cc1ccc(N2CCOC2=O)nc1 | 186 to 188 °C |
| Cc1sc2nc(CCl)[nH]c(=O)c2c1C | 190 to 192 °C |
| CC1=NN(CC(C)C)C(=O)C1 | 124 to 126 °C |
| O=C(O)c1cnn2cc(Br)cnc12 | 199 to 201 °C |
| CC(=O)N1CCC(CCl)CC1 | 48 to 50 °C |
| Cc1ccc(S)nc1 | 199 to 201 °C |
| N#Cc1ccc(NC(=O)C(=O)O)cc1Cl | 203 to 205 °C |
| O=S(=O)(c1ccc2oc(S)nc2c1)N1CCOCC1 | 251 to 253 °C |
| CC(C)Cn1c(N)c(Br)c(=O)[nH]c1=O | 249 to 251 °C |
| O=C(CCl)NC(=O)NC1CC1 | 105 to 107 °C |

More lines, now with the values ahead:

| melting point | Structure (SMILES) |
| --- | --- |
| 97 to 99 °C | Clc1cccc2cc(I)cnc12 |
| 72 to 74 °C | COc1cccc(C(=O)c2cccnc2)c1 |
| 169 to 171 °C | CC(=O)N1CCN(Cc2cccc(N)n2)CC1 |
| 184 to 186 °C | CCN(CCC(=O)O)Cc1nc2c(C)cccc2c(=O)[nH]1 |
| 209 to 211 °C | Cc1c[nH]c(=O)n1-c1ccccc1[N+](=O)[O-] |
| 174 to 176 °C | NS(=O)(=O)c1c(Cl)nc2ccccn12 |
| < 17 °C | CCOC(=O)Cc1nnc(S)n1Cc1ccco1 |
| 64 to 66 °C | CC(=O)NCc1ccc(C(=O)C(C)Cl)o1 (stereo not given) |
| 201 to 203 °C | COc1ccc2cc[nH]c(=O)c2c1 |
| 112 to 114 °C | COC(=O)/C=C/c1ccc(S(=O)(=O)Cl)cc1 |
| 40 to 44 °C | CCCCc1ccc(N2C(=O)C=CC2=O)cc1 |
| 165 to 167 °C | O=C(O)c1cc(O)cc(OCC(F)(F)F)c1 |
| 33 to 35 °C | CC(CC(=O)O)c1cccc(F)c1 (stereo not given) |
| 68 to 70 °C | CN(CCOc1ccccc1F)C(=O)CCl |
| 67 to 69 °C | NC(CCO)c1ccc(F)cc1 (stereo not given) |
| 180 to 182 °C | COc1ccc(C(=O)O)cc1S(=O)(=O)N(C)Cc1ccccc1 |
| 168 to 170 °C | Nc1cccc(Cn2cnc3ccccc32)c1 |
| 168 to 170 °C | CC(C)c1c(C(=O)O)cnn1-c1ccc(C(F)(F)F)cn1 |
| 80 to 82 °C | O=C(O)CNS(=O)(=O)c1cccc(C(F)(F)F)c1 |
| 195 to 197 °C | COc1ccccc1-c1c[nH]cc1C(=O)O |
| 175 to 182 °C | O=C(O)c1cnn(-c2ccccc2)c1 |
| 269 to 271 °C | O=C(O)c1ccnc(OCCOc2cc(C(=O)O)ccn2)c1 |
| 133 to 137 °C | CCOc1ccc(N2CC(C(=O)O)CC2=O)cc1 (stereo not given) |
| 59 to 61 °C | COc1ccc(CNC(=O)OC(C)(C)C)c(OC)c1 |
| 119 to 121 °C | COc1ccc2c(c1)OCC2=O |
| 106 to 108 °C | COc1ccc(C(=O)Cc2ccc(F)cc2)cc1 |

| melting point | Structure (SMILES) |
| --- | --- |
| 193 to 195 °C | CN(C)C(=O)COc1cccc(C(=O)O)c1 |
| 39 to 41 °C | CC(=O)c1ccc(Cl)c(F)c1 |
| 197 to 199 °C | Cc1cc(F)ccc1-n1ccc(C(=O)O)n1 |
| 100 to 102 °C | O=C(CN1CCCC(C(=O)O)C1)Nc1ccccc1 (stereo not given) |
| 73 to 75 °C | CCCOc1cccc(C(=O)O)c1 |
| 118 to 120 °C | CS(=O)(=O)N1CCCc2cc(C(=O)CCl)ccc21 |
| 138 to 140 °C | N#CC1CC(=O)N(c2ccccc2)C1 (stereo not given) |
| 179 to 181 °C | CC(=O)Nc1ccccc1OCc1ccc(C(=O)O)o1 |
| 80 to 82 °C | COCCOc1ccc(C(F)(F)F)cc1NC(=O)CCl |
| 249 to 251 °C | Nc1cccc(-c2nccn2CC(=O)O)c1 |
| 132 to 134 °C | O=C(O)CCS(=O)(=O)c1ccccc1Cl |
| 192 to 194 °C | Cc1cc(C#N)ccc1C(=O)O |
| 168 to 170 °C | O=C(O)C(=O)c1cnn(-c2ccccc2)c1 |
| 104 to 106 °C | CCS(=O)(=O)c1ccc(S(=O)(=O)Cl)cc1 |
| 170 to 172 °C | Cc1ccccc1C1(C(=O)O)CCOCC1 |
| 137 to 139 °C | O=C1CSC(=S)N1c1ccc(F)cc1 |
| 111 to 113 °C | CC(C)Oc1ccc(S(=O)(=O)N(C)C)cc1N |
| 82 to 84 °C | OCc1cnc2ccccc2c1 |
| 178 to 180 °C | COc1ccc(C)cc1NC(=O)c1cc2ccccc2cc1O |
| 126 to 128 °C | CCNCc1cccc(NC(=O)c2cc(Cl)c[nH]2)c1 |
| 116 to 118 °C | CC(C)(CO)C(CN)c1ccccc1 (stereo not given) |
| 195 to 208 °C | O=C(O)c1cccc(N2CCCC2=O)c1 |
| 84 to 86 °C | N#Cc1ccc(NCCO)cc1 |
| 113 to 115 °C | CC(C)Cc1ccc(C(=O)CCC(=O)O)cc1 |
| 219 to 221 °C | NS(=O)(=O)c1ccc(C(=O)O)cn1 |
| 149 to 151 °C | COc1ccc(C(=O)O)cc1S(=O)(=O)N(C)C |

| melting point | Structure (SMILES) |
| --- | --- |
| 166 to 168 °C | O=Cc1cnc2ccnn2c1 |
| 161 to 163 °C | NS(=O)(=O)c1ccccc1I |
| 212 to 214 °C | NNC(=O)c1ccc(Cl)c(S(N)(=O)=O)c1 |
| 76 to 78 °C | O=C(O)CCSc1ccc(F)cc1 |
| 46 to 48 °C | COC(=O)c1c(F)cccc1S(=O)(=O)Cl |
| 92 to 94 °C | CC(=O)CC(=O)Nc1ccc(F)c(F)c1 |
| 106 to 108 °C | Cc1ccc(SCCC(=O)NN)cc1 |
| 114 to 116 °C | CCOc1ccc(S(=O)(=O)NN)cc1 |
| 49 to 51 °C | CC(=O)Cc1ccc(-c2ccccc2)cc1 |
| 188 to 190 °C | Cc1ccc(S(=O)(=O)N(C)c2ccc(C(=O)O)cc2)cc1 |
| 143 to 145 °C | O=C(O)c1ccc(OCC(F)(F)F)nn1 |
| 65 to 67 °C | N#CCc1cnn(-c2ccccc2)n1 |
| 189 to 191 °C | O=C(O)c1ccc(Cl)cc1NS(=O)(=O)c1ccccc1 |
| 157 to 159 °C | CC(CO)NC(=O)C1=Cc2cc(Br)ccc2OC1 (stereo not given) |
| 203 to 205 °C | CCS(=O)(=O)N1CCC(C(=O)O)(c2ccccc2)CC1 |
| 170 to 172 °C | Cc1c(C=O)c2ccccn2c1C#N |
| 111 to 124 °C | CC(=O)c1ccc(-n2cncn2)cc1 |
| 101 to 105 °C | COc1ccc(OCCCC(=O)O)cc1 |
| 197 to 199 °C | Cc1ccc(-c2ccc(C(=O)O)s2)o1 |
| 66 to 68 °C | CCN(C(=O)OC(C)(C)C)C(C#N)c1cccnc1 (stereo not given) |
| 96 to 98 °C | O=S(=O)(Cl)Cc1noc2ccccc12 |
| 232 to 234 °C | O=C(O)c1cc(N2CCOC2=O)ccc1F |
| 170 to 172 °C | O=C(CCl)Nc1nc2ccc(F)cc2s1 |
| 87 to 89 °C | O=[N+]([O-])c1ccc(OCc2ccco2)nc1 |

Reference: a melting point compilation (Tetko et al.)
